The record followed here is patent publication US9718828B2 (MERCK SHARP & DOHME CORP., priority 2011, dated 2017).

Sequence of Btk enzyme (His-Btk) (Q06187 whole entry): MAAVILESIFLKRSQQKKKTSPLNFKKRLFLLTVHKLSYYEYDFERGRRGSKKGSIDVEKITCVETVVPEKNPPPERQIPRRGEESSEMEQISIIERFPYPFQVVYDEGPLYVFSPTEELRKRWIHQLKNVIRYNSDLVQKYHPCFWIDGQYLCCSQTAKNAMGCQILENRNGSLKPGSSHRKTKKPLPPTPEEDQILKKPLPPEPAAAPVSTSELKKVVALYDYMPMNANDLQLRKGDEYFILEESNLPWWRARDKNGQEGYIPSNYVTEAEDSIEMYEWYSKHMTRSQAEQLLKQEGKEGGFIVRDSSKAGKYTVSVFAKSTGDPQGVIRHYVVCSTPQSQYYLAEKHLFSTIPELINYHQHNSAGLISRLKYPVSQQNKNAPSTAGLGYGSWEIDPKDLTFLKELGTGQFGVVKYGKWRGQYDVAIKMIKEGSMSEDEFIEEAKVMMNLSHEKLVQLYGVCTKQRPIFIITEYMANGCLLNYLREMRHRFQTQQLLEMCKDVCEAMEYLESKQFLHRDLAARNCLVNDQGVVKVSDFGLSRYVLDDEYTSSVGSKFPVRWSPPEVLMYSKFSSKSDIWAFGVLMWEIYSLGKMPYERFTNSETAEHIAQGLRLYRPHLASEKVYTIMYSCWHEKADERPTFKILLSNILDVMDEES

One assay concerns the target Btk enzyme (His-Btk) (Homo sapiens (Human), UniProt Q06187). Put plainly: Btk enzyme activity, IMAP fluorescence polarization assay (Assay Method A).
Conditions: not given
Background: In fluorescence polarisation assays a small probe gives low polarisation when free and higher when bound to something large.
With `CC(C)(C#N)C(=O)N1CCC[C@@H](n2nc(-c3ccc(C(=O)Nc4cc(C(F)(F)F)ccn4)cc3)c3c(N)ncnc32)C1` [Example 263, (R)-4-(4-amino-1-(1-(2-cyano-2-methylpropanoyl)piperidin-3-yl)-1H-pyrazolo[3,4-d]pyrimidin-3-yl)-N-(4-(trifluoromethyl)pyridin-2-yl)benzamide], the 50% effective concentration (EC50) (usually the concentration that produces a half-maximal response) fell in the range of 10 to 100 nM.

For the compound `Nc1ncnc2c1c(-c1ccc(C(=O)Nc3cc(C(F)(F)F)ccn3)cc1)nn2[C@@H]1CCCN(C(=O)C(Cl)(Cl)Cl)C1` [Example 265, (R)-4-(4-amino-1-(1-(2,2,2-trichloroacetyl)piperidin-3-yl)-1H-pyrazolo[3,4-d]pyrimidin-3-yl)-N-(4-(trifluoromethyl)pyridin-2-yl)benzamide], the EC50 lay within 10 to 100 nM. Compound `CC(C)(F)C(=O)N1CCC[C@@H](n2nc(-c3ccc(C(=O)Nc4cc(C(F)(F)F)ccn4)cc3)c3c(N)ncnc32)C1` [Example 270, (R)-4-(4-amino-1-(1-(2-fluoro-2-methylpropanoyl)piperidin-3-yl)-1H-pyrazolo[3,4-d]pyrimidin-3-yl)-N-(4-(trifluoromethyl)pyridin-2-yl)benzamide] had an EC50 of 10 to 100 nM. The same measure, in the same setting: the result for `COCC1(C(=O)N2CCC[C@@H](n3nc(-c4ccc(C(=O)Nc5cc(C(F)(F)F)ccn5)cc4)c4c(N)ncnc43)C2)CCC1` [Example 272, (R)-4-(4-amino-1-(1-(1-(methoxymethyl)cyclobutanecarbonyl)piperidin-3-yl)-1H-pyrazolo[3,4-d]pyrimidin-3-yl)-N-(4-(trifluoromethyl)pyridin-2-yl)benzamide] reads 10 to 100 nM; that for `Nc1ncnc2c1c(-c1ccc(C(=O)Nc3cc(C(F)(F)F)ccn3)cc1)nn2[C@@H]1CCCN(C(=O)C(F)(F)F)C1` [Example 274, (R)-4-(4-amino-1-(1-(2,2,2-trifluoroacetyl)piperidin-3-yl)-1H-pyrazolo[3,4-d]pyrimidin-3-yl)-N-(4-(trifluoromethyl)pyridin-2-yl)benzamide], 10 to 100 nM; that for `CC(C)C(=O)N1CCC[C@@H](n2nc(-c3ccc(C(=O)Nc4cc(C(F)(F)F)ccn4)cc3)c3c(N)ncnc32)C1` [Example 279, (R)-4-(4-amino-1-(1-isobutyrylpiperidin-3-yl)-1H-pyrazolo[3,4-d]pyrimidin-3-yl)-N-(4-(trifluoromethyl)pyridin-2-yl)benzamide], 10 to 100 nM.

The same assay, now with this note: read-out: EC50 Btk activity values - Assay Method A; IMAP-FP, 60 min pre-incubation, 5 μM ATP; class 100-1000 is given as ≧100 nM-<1 μM.
In the case of `COCCOCCOCCOCCC(=O)N1CCC[C@@H](n2nc(-c3ccc(C(=O)Nc4cc(C(F)(F)F)ccn4)cc3)c3c(N)ncnc32)C1` [Example 264, (R)-4-(1-(1-2,5,8,11-tetraoxatetradecanepiperidin-3-yl)-4-amino-1H-pyrazolo[3,4-d]pyrimidin-3-yl)-N-(4-(trifluoromethyl)pyridin-2-yl)benzamide], the EC50 is less than 10 nM.

As to `CC1(C(=O)N2CCC[C@@H](n3nc(-c4ccc(C(=O)Nc5cc(C(F)(F)F)ccn5)cc4)c4c(N)ncnc43)C2)CCC1` [Example 266, (R)-4-(4-amino-1-(1-(1-methylcyclobutanecarbonyl)piperidin-3-yl)-1H-pyrazolo[3,4-d]pyrimidin-3-yl)-N-(4-(trifluoromethyl)pyridin-2-yl)benzamide], the concentration giving a half-maximal response (EC50) was less than 10 nM. For the compound `CC1(C(=O)N2CCC[C@@H](n3nc(-c4ccc(C(=O)Nc5cc(C(F)(F)F)ccn5)cc4)c4c(N)ncnc43)C2)COC1` [Example 267, (R)-4-(4-amino-1-(1-(3-methyloxetane-3-carbonyl)piperidin-3-yl)-1H-pyrazolo[3,4-d]pyrimidin-3-yl)-N-(4-(trifluoromethyl)pyridin-2-yl)benzamide], the EC50 is less than 10 nM. In the case of `CCNC(=O)N1CCC[C@@H](n2nc(-c3ccc(C(=O)Nc4cc(C(F)(F)F)ccn4)cc3)c3c(N)ncnc32)C1` [Example 268, (R)-3-(4-amino-3-(4-(4-(trifluoromethyl)pyridin-2-ylcarbamoyl)phenyl)-1H-pyrazolo[3,4-d]pyrimidin-1-yl)-N-ethylpiperidine-1-carboxamide], the EC50 is less than 10 nM.

With `Nc1ncnc2c1c(-c1ccc(C(=O)Nc3cc(C(F)(F)F)ccn3)cc1)nn2[C@@H]1CCCN(C(=O)C2CC2)C1` [Example 269, (R)-4-(4-amino-1-(1-(cyclopropanecarbonyl)piperidin-3-yl)-1H-pyrazolo[3,4-d]pyrimidin-3-yl)-N-(4-(trifluoromethyl)pyridin-2-yl)benzamide], the EC50 is less than 10 nM.

Turning to `CCC(=O)N1CCC[C@@H](n2nc(-c3ccc(C(=O)Nc4cc(C(F)(F)F)ccn4)cc3)c3c(N)ncnc32)C1` [Example 271, (R)-4-(4-amino-1-(1-propionylpiperidin-3-yl)-1H-pyrazolo[3,4-d]pyrimidin-3-yl)-N-(4-(trifluoromethyl)pyridin-2-yl)benzamide], the EC50 is less than 10 nM. Regarding `CCOC(=O)N1CCC[C@@H](n2nc(-c3ccc(C(=O)Nc4cc(C(F)(F)F)ccn4)cc3)c3c(N)ncnc32)C1` [Example 273, (R)-ethyl 3-(4-amino-3-(4-(4-(trifluoromethyl)pyridin-2-ylcarbamoyl)phenyl)-1H-pyrazolo[3,4-d]pyrimidin-1-yl)piperidine-1-carboxylate], the concentration giving a half-maximal response (EC50) was less than 10 nM. With `COCCOCCC(=O)N1CCC[C@@H](n2nc(-c3ccc(C(=O)Nc4cc(C(F)(F)F)ccn4)cc3)c3c(N)ncnc32)C1` [Example 275, (R)-4-(4-amino-1-(1-(3-(2-methoxyethoxy)propanoyl)piperidin-3-yl)-1H-pyrazolo[3,4-d]pyrimidin-3-yl)-N-(4-(trifluoromethyl)pyridin-2-yl)benzamide], the EC50 is less than 10 nM.

Regarding `CSCCC(=O)N1CCC[C@@H](n2nc(-c3ccc(C(=O)Nc4cc(C(F)(F)F)ccn4)cc3)c3c(N)ncnc32)C1` [Example 276, (R)-4-(4-amino-1-(1-(3-(methylthio)propanoyl)piperidin-3-yl)-1H-pyrazolo[3,4-d]pyrimidin-3-yl)-N-(4-(trifluoromethyl)pyridin-2-yl)benzamide], the 50% effective concentration (EC50) is less than 10 nM. As to `Nc1ncnc2c1c(-c1ccc(C(=O)Nc3cc(C(F)(F)F)ccn3)cc1)nn2[C@@H]1CCCN(C(=O)C2CCC2)C1` [Example 277, (R)-4-(4-amino-1-(1-(cyclobutanecarbonyl)piperidin-3-yl)-1H-pyrazolo[3,4-d]pyrimidin-3-yl)-N-(4-(trifluoromethyl)pyridin-2-yl)benzamide], the concentration for a half-maximal effect (EC50) is less than 10 nM. On the same count and under the same terms, the result for `Nc1ncnc2c1c(-c1ccc(C(=O)Nc3cc(C(F)(F)F)ccn3)cc1)nn2[C@@H]1CCCN(C(=O)C2CC(F)(F)C2)C1` [Example 278, (R)-4-(4-amino-1-(1-(3,3-difluorocyclobutanecarbonyl)piperidin-3-yl)-1H-pyrazolo[3,4-d]pyrimidin-3-yl)-N-(4-(trifluoromethyl)pyridin-2-yl)benzamide] reads less than 10 nM; that for `COCCC(=O)N1CCC[C@@H](n2nc(-c3ccc(C(=O)Nc4cc(C(F)(F)F)ccn4)cc3)c3c(N)ncnc32)C1` [Example 280, (R)-4-(4-amino-1-(1-(3-methoxypropanoyl)piperidin-3-yl)-1H-pyrazolo[3,4-d]pyrimidin-3-yl)-N-(4-(trifluoromethyl)pyridin-2-yl)benzamide], less than 10 nM; that for `CCOCCC(=O)N1CCC[C@@H](n2nc(-c3ccc(C(=O)Nc4cc(C(F)(F)F)ccn4)cc3)c3c(N)ncnc32)C1` [Example 281, (R)-4-(4-amino-1-(1-(3-ethoxypropanoyl)piperidin-3-yl)-1H-pyrazolo[3,4-d]pyrimidin-3-yl)-N-(4-(trifluoromethyl)pyridin-2-yl)benzamide], less than 10 nM.
